Test results from ChEMBL document CHEMBL1201862, “PubChem BioAssay data set” (2004).
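Five concentrations, 48 hours, 96-well plates. The concentration for 50% growth inhibition is given as GI50.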 The source made the active and inactive calls. No stated cut-off is given here; in the data, active = GI50 up to about 1.1 µM and inactive = higher.

Columns and labels:
Assay in all cases: NCI anticancer screen, dose series, 48 h
[1] = system: HT-29
[2] = system: K562
[3] = system: ACHN
[4] = system: OVCAR-8
[5] = system: TK-10
[6] = system: DU-145
[7] = system: CCRF-CEM
[8] = system: SF-539
[9] = system: NCI-H460
[10] = system: T47D
[11] = system: NCI-H23
[12] = system: HCT-15
[13] = system: COLO 205
[14] = system: SK-MEL-5
[15] = system: OVCAR-5
[16] = system: OVCAR-4
[17] = system: HCC 2998
[18] = system: NCI/ADR-RES
[19] = system: UACC-62
[20] = system: Hs-578T

SMILES | GI50 [1] | GI50 [2] | GI50 [3] | GI50 [4] | GI50 [5] | GI50 [6] | GI50 [7] | GI50 [8] | GI50 [9] | GI50 [10] | GI50 [11] | GI50 [12] [µM] | GI50 [13] | GI50 [14] | GI50 [15] | GI50 [16] | GI50 [17] | GI50 [18] | GI50 [19] | GI50 [20]
CC(=O)OCC1OC(SC2OC(COC(C)=O)C(OC(C)=O)C(OC(C)=O)C2OC(C)=O)C(OC(C)=O)C(OC(C)=O)C1OC(C)=O (centres undefined) | > 100 µM (inactive) | > 100 µM (inactive) | 52.5 µM (inactive) | > 100 µM (inactive) | > 100 µM (inactive) | > 100 µM (inactive) | > 100 µM (inactive) | > 100 µM (inactive) | > 100 µM (inactive) | > 100 µM (inactive) | > 100 µM (inactive) | > 100 | > 100 µM (inactive) | > 100 µM (inactive) | > 100 µM (inactive) | > 100 µM (inactive) | > 100 µM (inactive) | > 100 µM (inactive) | > 100 µM (inactive) | –
O=C(CC1(O)C(=O)Nc2c(Cl)cc(Cl)cc21)c1ccc(Br)cc1Br (centres undefined) | 17.7 µM (inactive) | 0.946 µM (active) | 14.1 µM (inactive) | 7.98 µM (inactive) | 18.1 µM (inactive) | 16.3 µM (inactive) | 0.474 µM (active) | 14.6 µM (inactive) | 16 µM (inactive) | – | 8.26 µM (inactive) | 8.57 | 7.21 µM (inactive) | 7.4 µM (inactive) | 17.7 µM (inactive) | 12.2 µM (inactive) | 16.7 µM (inactive) | – | 12.9 µM (inactive) | 0.0646 µM (active)
O=c1[nH]c(=O)n(COCc2ccccc2)c2ccc([N+](=O)[O-])cc12 | > 100 µM (inactive) | > 100 µM (inactive) | 25.6 µM (inactive) | 35.2 µM (inactive) | > 100 µM (inactive) | > 100 µM (inactive) | > 100 µM (inactive) | > 100 µM (inactive) | – | – | – | > 100 | > 100 µM (inactive) | > 100 µM (inactive) | > 100 µM (inactive) | 56.5 µM (inactive) | > 100 µM (inactive) | 4.85 µM (inactive) | > 100 µM (inactive) | –
CCOP(=O)(OCC)C(c1ccccc1)N(C(=O)NC(F)(F)F)c1cccc(F)c1 (centres undefined) | > 100 µM (inactive) | 63.8 µM (inactive) | > 100 µM (inactive) | > 100 µM (inactive) | > 100 µM (inactive) | > 100 µM (inactive) | > 100 µM (inactive) | > 100 µM (inactive) | > 100 µM (inactive) | – | > 100 µM (inactive) | 81.5 | > 100 µM (inactive) | > 100 µM (inactive) | > 10 µM (inactive) | – | 55.8 µM (inactive) | 58.9 µM (inactive) | – | 78.3 µM (inactive)
c1ccc(-c2csc3c2-n2cccc2C3N2CCCC2)cc1 (centres undefined) | 28.2 µM (inactive) | 22.6 µM (inactive) | > 100 µM (inactive) | 26.8 µM (inactive) | 27 µM (inactive) | 95.3 µM (inactive) | 70.1 µM (inactive) | 36.4 µM (inactive) | 44.4 µM (inactive) | – | 20.9 µM (inactive) | 93.8 | > 10 µM (inactive) | 4.84 µM (inactive) | 20.2 µM (inactive) | 34.4 µM (inactive) | 26.1 µM (inactive) | > 100 µM (inactive) | – | 62.1 µM (inactive)
O=C1CC[C@@]2(O)[C@H]3Cc4ccc(-c5cccc(O)c5)c5c4[C@@]2(CCN3CC2CC2)[C@H]1O5 | 11.3 µM (inactive) | 21.9 µM (inactive) | 25.4 µM (inactive) | 19.6 µM (inactive) | 1.01 µM (active) | 22.6 µM (inactive) | < 0.01 µM (active) | 18.9 µM (inactive) | 0.839 µM (active) | – | 27 µM (inactive) | 23.9 | 21 µM (inactive) | 16.3 µM (inactive) | 13.6 µM (inactive) | 23.3 µM (inactive) | 16.4 µM (inactive) | 15.8 µM (inactive) | 10.7 µM (inactive) | –
C/C(O[Si](C(C)C)(C(C)C)C(C)C)=C(\C)C(=O)N(C)c1ccccc1Cl | > 100 µM (inactive) | – | > 100 µM (inactive) | > 100 µM (inactive) | > 100 µM (inactive) | > 100 µM (inactive) | – | > 100 µM (inactive) | > 100 µM (inactive) | > 100 µM (inactive) | > 100 µM (inactive) | > 100 | > 100 µM (inactive) | > 100 µM (inactive) | > 100 µM (inactive) | > 100 µM (inactive) | – | > 100 µM (inactive) | – | –
CCOC(=O)C1(N)CCc2[nH][nH]c(=O)c2C1 (centres undefined) | > 100 µM (inactive) | > 100 µM (inactive) | > 100 µM (inactive) | > 100 µM (inactive) | > 100 µM (inactive) | – | > 100 µM (inactive) | > 100 µM (inactive) | > 100 µM (inactive) | > 100 µM (inactive) | > 100 µM (inactive) | > 100 | > 100 µM (inactive) | > 100 µM (inactive) | > 100 µM (inactive) | > 100 µM (inactive) | > 100 µM (inactive) | > 100 µM (inactive) | > 100 µM (inactive) | > 100 µM (inactive)
O=P(O)(O)c1ccccc1Oc1ccccc1 | – | > 100 µM (inactive) | > 100 µM (inactive) | > 100 µM (inactive) | > 100 µM (inactive) | > 100 µM (inactive) | > 100 µM (inactive) | > 100 µM (inactive) | > 100 µM (inactive) | – | > 100 µM (inactive) | > 100 | > 100 µM (inactive) | > 100 µM (inactive) | > 100 µM (inactive) | – | > 100 µM (inactive) | > 100 µM (inactive) | > 100 µM (inactive) | > 100 µM (inactive)
COc1cc(OC)c2c(=O)c3c([N+](=O)[O-])cccc3n(C)c2c1 | > 100 µM (inactive) | > 100 µM (inactive) | > 100 µM (inactive) | > 100 µM (inactive) | > 100 µM (inactive) | – | > 100 µM (inactive) | > 100 µM (inactive) | > 100 µM (inactive) | – | > 100 µM (inactive) | > 100 | > 100 µM (inactive) | > 100 µM (inactive) | > 100 µM (inactive) | > 100 µM (inactive) | > 100 µM (inactive) | – | > 100 µM (inactive) | –
Cc1cs/c(=N/c2ccccc2)n1CCC(O)(P(=O)(O)O)P(=O)(O)O | > 100 µM (inactive) | – | 67.3 µM (inactive) | > 100 µM (inactive) | > 100 µM (inactive) | > 100 µM (inactive) | – | > 100 µM (inactive) | 90.6 µM (inactive) | – | > 100 µM (inactive) | 63.1 | > 100 µM (inactive) | 71.6 µM (inactive) | > 100 µM (inactive) | – | > 100 µM (inactive) | > 100 µM (inactive) | > 100 µM (inactive) | > 100 µM (inactive)
COc1cc(OCc2ccccc2)c2c(CCC(=O)O)cc(=O)oc2c1.COc1cc(OCc2ccccc2)cc2oc(=O)cc(CCC(=O)O)c12 | 36.7 µM (inactive) | 49 µM (inactive) | 37.5 µM (inactive) | 37 µM (inactive) | 31.6 µM (inactive) | 64.6 µM (inactive) | 36.7 µM (inactive) | 71.6 µM (inactive) | – | – | 33.9 µM (inactive) | 27 | 67.3 µM (inactive) | 70.6 µM (inactive) | > 100 µM (inactive) | 47.6 µM (inactive) | 56.5 µM (inactive) | 52.7 µM (inactive) | 63.2 µM (inactive) | 50.6 µM (inactive)
CC(C)(C)CNCCCNc1ccc(Cl)cc1 | 20.2 µM (inactive) | < 0.01 µM (active) | > 100 µM (inactive) | > 100 µM (inactive) | 19.7 µM (inactive) | > 100 µM (inactive) | 35.8 µM (inactive) | 92.9 µM (inactive) | 37.2 µM (inactive) | – | > 100 µM (inactive) | 93.1 | 21 µM (inactive) | – | 51.8 µM (inactive) | 60.8 µM (inactive) | – | > 100 µM (inactive) | 17.2 µM (inactive) | 40.1 µM (inactive)
OC(c1ccccc1)(c1ccccc1)c1cccnc1 | > 100 µM (inactive) | > 100 µM (inactive) | > 100 µM (inactive) | > 100 µM (inactive) | > 100 µM (inactive) | – | > 100 µM (inactive) | > 100 µM (inactive) | > 100 µM (inactive) | – | > 100 µM (inactive) | > 100 | > 100 µM (inactive) | > 100 µM (inactive) | > 100 µM (inactive) | > 100 µM (inactive) | > 100 µM (inactive) | – | > 100 µM (inactive) | –
CCN1c2nc3ccccc3nc2N(CC)c2nc3ccccc3nc21 | 39.5 µM (inactive) | 34 µM (inactive) | 39.1 µM (inactive) | 60.1 µM (inactive) | 52.6 µM (inactive) | 65.8 µM (inactive) | 48.3 µM (inactive) | 25.8 µM (inactive) | 32.9 µM (inactive) | – | 49.1 µM (inactive) | 34.1 | 82.2 µM (inactive) | 41.2 µM (inactive) | > 100 µM (inactive) | – | 50.5 µM (inactive) | 63.8 µM (inactive) | 39.2 µM (inactive) | 71.4 µM (inactive)
CC1=C(C(=O)NCc2ccccc2)C(c2ccccc2O)C(C(=O)NCc2ccccc2)=C(C)N1 | 19.5 µM (inactive) | 36.1 µM (inactive) | 16.4 µM (inactive) | 18.7 µM (inactive) | 17.9 µM (inactive) | – | 26.5 µM (inactive) | 18.4 µM (inactive) | 18.4 µM (inactive) | – | 17.1 µM (inactive) | 13.6 | 16.9 µM (inactive) | 15 µM (inactive) | 18.9 µM (inactive) | 17 µM (inactive) | 21 µM (inactive) | – | 16.1 µM (inactive) | –
